This note sets out measurements from patent US20240287080A1 (IDEAYA Biosciences Inc., priority 2021, published 2024).

Where only a bound is given, the exact number is not on record here.

The IC50 is the point on the concentration scale where inhibition reaches its midpoint.

T1 sequence (O75417 1-899): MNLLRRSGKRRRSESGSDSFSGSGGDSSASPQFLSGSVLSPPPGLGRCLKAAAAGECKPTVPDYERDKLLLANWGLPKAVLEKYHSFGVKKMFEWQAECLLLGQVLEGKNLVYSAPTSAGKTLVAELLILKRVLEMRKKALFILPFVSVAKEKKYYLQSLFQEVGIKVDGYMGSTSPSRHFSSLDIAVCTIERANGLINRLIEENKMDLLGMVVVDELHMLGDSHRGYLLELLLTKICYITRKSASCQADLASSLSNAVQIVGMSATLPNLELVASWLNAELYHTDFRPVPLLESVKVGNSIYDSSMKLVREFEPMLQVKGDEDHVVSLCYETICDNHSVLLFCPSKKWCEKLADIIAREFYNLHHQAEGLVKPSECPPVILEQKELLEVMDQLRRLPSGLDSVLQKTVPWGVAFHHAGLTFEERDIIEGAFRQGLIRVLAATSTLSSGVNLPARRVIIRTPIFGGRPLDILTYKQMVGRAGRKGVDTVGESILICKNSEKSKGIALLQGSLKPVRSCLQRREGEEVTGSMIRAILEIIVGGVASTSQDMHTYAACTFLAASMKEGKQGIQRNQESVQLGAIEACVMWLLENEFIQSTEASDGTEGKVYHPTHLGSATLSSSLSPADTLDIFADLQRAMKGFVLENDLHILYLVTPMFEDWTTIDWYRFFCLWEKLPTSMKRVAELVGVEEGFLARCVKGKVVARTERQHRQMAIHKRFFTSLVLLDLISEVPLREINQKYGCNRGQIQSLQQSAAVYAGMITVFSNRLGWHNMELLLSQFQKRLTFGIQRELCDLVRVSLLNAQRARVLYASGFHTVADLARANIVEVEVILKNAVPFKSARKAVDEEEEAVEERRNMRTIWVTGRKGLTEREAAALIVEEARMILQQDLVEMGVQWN

The first experiment has as its target T1, Pol theta (1-899) (Homo sapiens, UniProt O75417).
T1 construct: Pol theta (1-899) (5 nM) in assay buffer
As to the kind of experiment: Pol theta ATPase activity, NADH oxidation-coupled enzymatic assay (ATPase NADH coupling: Standard Screening: hPolQ). To be noted: Pol theta (1-899) 5 nM, NADH oxidation-coupled ATPase assay; compounds of Table 3. The format is biochemical. On the procedure:
The ability of the compounds of Formula (I) or Table 1 to inhibit ATPase activity of Pol theta (1-899) was determined using the assay described below. Pol Theta ATPase activity was determined by measuring the rate of ATP turn over in a NADH oxidation-coupled enzymatic assay. 10-point dilution series of compounds were used in a 384 well format for the inhibition assays. Pol theta (1-899) (5 nM) in assay buffer (20 mM Tris HCl (pH 7.80), 80 mM KCl, 10 mM MgCl2, 1 mM DTT, 0.01% BSA, 0.01% Tween, 5% glycerol) was transferred to the test wells (20 μL), except the low control wells (20 μL of assay buffer was added to the low control wells). The plate was then incubated at room temperature for 15 min. An equal volume (20 μL) of 100 μM ATP, 300 nM […] (single-stranded DNA (ssDNA) containing 50 thymine bases), 300 μM NADH, 6 mM PEP, 10 U/mL lactate dehydrogenase and 20 U/mL pyruvate kinase in assay buffer was added to all the test wells. The plate was then centrifuged at 1000 rpm for 1 min. The reaction was monitored for 60 min by measuring absorbance (λ=340 nm) in a Tecan Spark multimode plate reader every minute. The high control (DMSO with enzyme) with low absorbance intensity represents no inhibition of ATPase reaction while the low control (DMSO with buffer) with high absorbance intensity represents full inhibition of ATPase activity. Slope of the reaction progress curves were used to calculate the rate of ATP hydrolysis. The rates were used to determine the percent inhibition using a four-parameter inhibition model to generate IC50, Hill slope and max inhibition.
As for `COc1nnc(NC(=O)c2cnc(C)cc2-c2cc(C)nn2C)s1` [Example 420, 4-(1,3-dimethyl-1H-pyrazol-5-yl)-N-(5-methoxy-1,3,4-thiadiazol-2-yl)-6-methylpyridine-3-carboxamide], the IC50 lay within 1000 to 10000 nM.

Turning to `COc1nnc(NC(=O)c2cnc(C)cc2-c2ccc(C(=O)O)c(F)c2)s1` [Example 465, 2-fluoro-4-(5-((5-methoxy-1,3,4-thiadiazol-2-yl)carbamoyl)-2-methylpyridin-4-yl)benzoic acid], the half-inhibitory concentration (IC50) is 1000 to 10000 nM.

For `COc1cnc(C)c(F)c1-c1cc(C)ncc1C(=O)Nc1nnc(O[C@@H]2CCC[C@@H](O)C2)s1` (single isomer, unassigned) [Example 274], the IC50 is ≤ 200 nM.

As to `COc1nnc(NC(=O)c2cnc(C)cc2-c2ccc(CN(C)C)nc2)s1` [Example 474, 6-((dimethylamino)methyl)-N-(5-methoxy-1,3,4-thiadiazol-2-yl)-6′-methyl-[3,4′-bipyridine]-3′-carboxamide], the IC50 fell in the range of 1000 to 10000 nM.

Consider `COc1nnc(NC(=O)c2cnc(C)cc2-c2ccn(C)c(=O)c2)s1` [Example 351, N-(5-methoxy-1,3,4-thiadiazol-2-yl)-1′,6-dimethyl-2′-oxo-1′,2′-dihydro-[4,4′-bipyridine]-3-carboxamide], for which the IC50 was in the range of 1000 to 10000 nM.

In turn, `COc1nnc(NC(=O)c2cnc(C)cc2-c2ccc3c(c2)CNC3=O)s1` [Example 379, N-(5-methoxy-1,3,4-thiadiazol-2-yl)-6-methyl-4-(1-oxo-2,3-dihydro-1H-isoindol-5-yl)pyridine-3-carboxamide] registered an IC50 of 1000 to 10000 nM.

Compound `COc1ccc(OC)c(-c2cc(C)ncc2C(=O)Nc2nnc(OC)s2)c1` [Example 486, 4-(2,5-dimethoxyphenyl)-N-(5-methoxy-1,3,4-thiadiazol-2-yl)-6-methylnicotinamide] showed an IC50 of 500 to 1000 nM.

`COc1nnc(NC(=O)c2cnc(C)cc2-c2cnc(N)c(C#N)c2)s1` [Example 362, 6-amino-5-cyano-N-(5-methoxy-1,3,4-thiadiazol-2-yl)-6′-methyl-[3,4′-bipyridine]-3′-carboxamide]: the IC50 lay in the range of 1000 to 10000 nM.

Regarding `COc1nnc(NC(=O)c2cnc(C)cc2-c2ccc3nc[nH]c3c2)s1` [Example 490, 4-(1H-1,3-benzodiazol-6-yl)-N-(5-methoxy-1,3,4-thiadiazol-2-yl)-6-methylpyridine-3-carboxamide], the IC50 was in the range of 1000 to 10000 nM.

On to `COc1cnc(C)c(F)c1-c1cc(C)ncc1C(=O)Nc1nnc(OCCN(C)CC(F)(F)F)s1` [Example 258, 3′-fluoro-5′-methoxy-2′,6-dimethyl-N-(5-(2-(methyl(2,2,2-trifluoroethyl)amino)ethoxy)-1,3,4-thiadiazol-2-yl)-[4,4′-bipyridine]-3-carboxamide], for which the IC50 was ≤ 200 nM.

`COc1cnc(C)c(F)c1-c1cc(C)ncc1C(=O)Nc1nnc(O[C@@H]2CO[C@H]3OCC[C@H]32)s1` (single isomer, unassigned) [Example 304]: the IC50 was ≤ 200 nM.

In turn, `COc1nnc(NC(=O)c2cnc(C)cc2-c2ccco2)s1` [Example 391, 4-(furan-2-yl)-N-(5-methoxy-1,3,4-thiadiazol-2-yl)-6-methylpyridine-3-carboxamide] registered a half-inhibitory concentration (IC50) of 1000 to 10000 nM.

Consider `COc1nnc(NC(=O)c2cnc(C)cc2-c2cccc3cnccc23)s1` [Example 372, 4-(isoquinolin-5-yl)-N-(5-methoxy-1,3,4-thiadiazol-2-yl)-6-methylpyridine-3-carboxamide], for which the IC50 lay within 200 to 500 nM.

`COc1cnc(Cl)cc1-c1cc(C)ncc1C(=O)Nc1nnc(OC2CCCN(C3CCOC3)C2)s1` (stereo not drawn) [Example 247, 2′-chloro-5′-methoxy-6-methyl-N-(5-((1-(tetrahydrofuran-3-yl)piperidin-3-yl)oxy)-1,3,4-thiadiazol-2-yl)-[4,4′-bipyridine]-3-carboxamide]: the IC50 was ≤ 200 nM.

`COc1nnc(NC(=O)c2cnc(C)cc2-c2cc(Cl)c([S+](C)[O-])cc2OC)s1` (single isomer, unassigned) [Example 277]: the IC50 is ≤ 200 nM.

Staying with this experiment, now noted: Table 4; Pol theta (1-899) 5 nM, ATP, dT50 ssDNA.
As for `COc1nnc(NC(=O)c2cnc(C)cc2-c2cc(N)ncc2OC)s1` [Example 73, 2′-amino-5′-methoxy-N-(5-methoxy-1,3,4-thiadiazol-2-yl)-6-methyl-(4,4′-bipyridine)-3-carboxamide], the IC50 is 500 to 1000 nM.

Compound `COc1nnc(NC(=O)c2cnc(C)cc2-c2c(Cl)cccc2Cl)s1` [Example 34, 4-(2,6-dichlorophenyl)-N-(5-methoxy-1,3,4-thiadiazol-2-yl)-6-methylnicotinamide] returned an IC50 of 500 to 1000 nM.

On to `COc1cnc(Cl)cc1-c1cc(C)ncc1C(=O)Nc1nnc(OC2COC2)s1` [Example 13, 2′-chloro-5′-methoxy-6-methyl-N-(5-(oxetan-3-yloxy)-1,3,4-thiadiazol-2-yl)-(4,4′-bipyridine)-3-carboxamide], for which the IC50 is ≤ 200 nM.

With `COc1cnc(Cl)cc1-c1cc(C)ncc1C(=O)Nc1nnc(O[C@H]2CCO[C@@H]2C)s1` (single isomer, unassigned) [Example 77, 2′-chloro-5′-methoxy-6-methyl-N-(5-(((2r,3s)-2-methyltetrahydrofuran-3-yl)oxy)-1,3,4-thiadiazol-2-yl)-(4,4′-bipyridine)-3-carboxamide], the IC50 is ≤ 200 nM.

In the case of `COc1nnc(NC(=O)c2cnc(C)cc2-c2cc(C)ccc2OC)s1` [Example 30, N-(5-methoxy-1,3,4-thiadiazol-2-yl)-4-(2-methoxy-5-methylphenyl)-6-methylnicotinamide], the IC50 was ≤ 200 nM.

The same experiment, now with this note: Table 5; Pol theta (1-899) 5 nM, ATP, dT50 ssDNA.
As to `COc1cnc(Cl)cc1-c1cc(C)ncc1C(=O)Nc1nnc(O[C@H]2C[C@@H](O)C2(C)C)s1` (single isomer, unassigned) [Example 183, 2′-chloro-N-(5-((1r,3s)-3-hydroxy-2,2-dimethylcyclobutoxy)-1,3,4-thiadiazol-2-yl)-5′-methoxy-6-methyl-(4,4′-bipyridine)-3-carboxamide], the IC50 is ≤ 200 nM.

Regarding `COc1cnc(Cl)cc1-c1cc(C)ncc1C(=O)Nc1nnc(O[C@@H]2CC[C@H]2O)s1` (single isomer, unassigned) [Example 114], the IC50 is ≤ 200 nM.

As for `COc1cnc(Cl)cc1-c1cc(C)ncc1C(=O)Nc1nnc(O[C@H]2CCC[C@@H](O)C2)s1` (single isomer, unassigned) [Example 159], the IC50 is ≤ 200 nM.

As to `COc1cnc(Cl)cc1-c1cc(C)ncc1C(=O)Nc1nnc(O[C@@H]2CCC[C@@H](OC)C2)s1` (single isomer, unassigned) [Example 148], the IC50 is ≤ 200 nM.

`Cc1cc(-c2cc(Cl)ncc2OC(F)F)c(C(=O)Nc2nnc(O[C@H]3CC[C@](C)(O)CC3)s2)cn1` (single isomer, unassigned) [Example 223, 2′-chloro-5′-(difluoromethoxy)-N-(5-(((1r,4r)-4-hydroxy-4-methylcyclohexyl)oxy)-1,3,4-thiadiazol-2-yl)-6-methyl-(4,4′-bipyridine)-3-carboxamide]: the IC50 was ≤ 200 nM.

For `COc1cnc(Cl)cc1-c1cc(C)ncc1C(=O)Nc1nnc(OC2CCC3(CCCO3)CC2)s1` (single isomer, unassigned) [Example 173, N-(5-(((5s,8r)-1-oxaspiro(4.5)decan-8-yl)oxy)-1,3,4-thiadiazol-2-yl)-2′-chloro-5′-methoxy-6-methyl-(4,4′-bipyridine)-3-carboxamide], the IC50 was ≤ 200 nM.

Consider `COc1cnc(Cl)cc1-c1cc(C)ncc1C(=O)Nc1nnc(O[C@@H]2CCC[C@H](OC)C2)s1` (single isomer, unassigned) [Example 146], for which the IC50 is ≤ 200 nM.
